Measurements taken from patent US20240139149A1, “THERAPEUTIC USES OF UROLITHIN DERIVATIVES” (Vandria SA, priority 2022, published 2024).

Key:
Format in all cases: cell-based
[1] = tested on: cortical neurons and microglial cells injured with Aβ1-42; experiment: Rat primary culture of cortical neurons and microglial cells injured with Aβ1-42
Description: Pregnant female rat (Wistar) of 15 days of gestation were killed using a deep anesthesia with CO2 chamber and a cervical dislocation. Fetuses were collected and immediately placed in ice-cold L15 Leibovitz medium with a 2% penicillin (10,000 U/mL) and streptomycin (10 mg/mL) solution (PS) and 1% bovine serum albumin (BSA). Cortex were specifically dissected and then were treated for 20 min at 37° C. with a trypsin-EDTA solution at a final concentration of 0.05% trypsin and 0.02% EDTA. The dissociation was stopped by addition of Dulbecco's modified Eagle's medium (DMEM) with 4.5 g/L of glucose, containing DNAse I grade II (final concentration 0.5 mg/mL) and 10% fetal calf serum (FCS). Cells were mechanically dissociated by three forced passages through the tip of a 10-mL pipette. Cells were then centrifuged at 515×g for 10 min at 4° C. The supernatant was discarded, and the pellet was resuspended in a defined culture medium consisting of Neurobasal medium with a 2% solution of B27 supplement, 2 mmol/liter of L-glutamine, 2% of PS solution, 10 ng/mL of brain-derived neurotrophic factor (BDNF), 2% of heat-inactivated horse serum, 2% of heat-inactivated FCS, 1 g/L of glucose, 1 mM of sodium pyruvate, and 100 μM of non-essential amino acids. The presence of serum in the medium allows the growth of the microglial cells. Viable cells were counted in a Neubauer cytometer, using the trypan blue exclusion test.
The cells were seeded at a density of 45 000 per well in 96-well plate precoated with poly-L-lysine and were cultured at 37° C. in an air (95%)—CO2 (5%) incubator. The medium was changed every 2 days.
On day 11 of culture, the compounds were dissolved in the appropriate vehicle and pre-incubated with the primary cortical neurons for one hour (1 h), before Aβ1-42 exposure.
On day 11 of culture, the cortical neurons were injured with the AP 1-42 peptide. AP 1-42 peptide was dissolved in the defined culture medium mentioned above, at an initial concentration of 20 μM. The solution was gently agitated for 3 days at 37° C. in the dark and immediately used after being properly diluted in culture medium to the concentration used (5 μM, 0.5 μM oligomers precisely evaluated by automatic WB). The AP 1-42 solution was applied on the culture at […] (0.5 μM oligomers, AβO), in presence of the compound, for 72 hours.
72 hours after the application of Aβ, the cell culture supernatant was removed. Cells were then washed with phosphate-buffered saline (PBS) and fixed with a cold solution of ethanol (95%) and acetic acid (5%) for 5 min at −20° C. After two washing steps with cold PBS, cells permeabilized and unspecific binding sites were blocked with a solution of PBS containing 0.1% of saponin and 1% of FCS, for 15 min at RT. Cells were incubated for 2 hours with: • a) Monoclonal anti-MAP2 antibody produced in mouse at dilution of 1/400 in PBS containing 1% FCS, 0.1% saponin, for 2 hours at room temperature. • b) Rabbit polyclonal antibody anti-SIRP alpha/CD172a (OX-41) at dilution of 1/400 in PBS containing 1% fetal calf serum and 0.1% of saponin (this antibody stains specifically the microglia and will allow to evaluate the activation of the microglial cells).
For each condition, 30 pictures (representative of the whole well area) were automatically taken using ImageXpress® (Molecular Devices) at 20× magnification using the same acquisition parameters. From images, the analyses were automatically performed by MetaXpress® (Molecular Devices). The following read-outs were measured: • Total neuron survival (number of MAP-2(+) neurons), • Total length of neurite network of MAP-2(+) neurons (in μm) • Total area of activated microglia (area of OX-41 signal, in μm^2)
All values are expressed as mean+/−SEM (standard error of the mean). Statistical analysis was performed by one-way ANOVA followed by Fisher's LSD test, with GraphPad Prism. p<0.05 was considered significant.

[2] = tested on: mouse T lymphocytes; experiment: Mitochondrial content (Mitotracker positive cells) in mouse T lymphocytes; details: 2 μM, 72 h
Description: Splenic murine T cells were isolated from mice aged 6-20 weeks by negative selection with EasySep mouse T cell isolation kit (Stem cell) according to the manufacturer's instructions. T cell activation was initiated using CD3/CD28 activation beads (11456D; ThermoFisher Scientific) at a ratio of 25 μl dynabeads per 0.5×10^6 T-cells. Cells were activated with test compounds at 2 μM or DMSO in T cell activation Medium (RPMI (ThermoFisher Scientific) 10% FBS (South America origin), 10 mM Hepes (Sigma), 1× Non-Essential Amino Acid, 1 mM Sodium Pyruvate, 50 μM β-Mercaptoethanol, 100 U/ml penicillin, 100 μg/ml streptomycin and 2 mM Glutamax (ThermoFisher Scientific) for 72 h. For subsequent analysis, activating beads were magnetically removed prior staining.
For flow cytometric analysis of mitochondria 500 μl of Mitotracker Red (200 nM; ThermoFisher) was applied followed by surface staining.
Cell doublets and cells debris were excluded from the analysis by gating FSC-A vs FSC-H followed by SSC-A vs SSC-H dot plots and FSC-A vs SSC-A dot plots, respectively. eFluor 780 highly positive cells, i.e, dead cells, were gated out of the analysis. Data was acquired on Canto II (BD), Fortessa (BD) and Aurora (Cytek) cytometers and analyzed with FlowJo.

[3] = tested on: splenic murine T cells; experiment: Murine T cells stimulated with αCD3/αCD28 in presence of UA; details: ICG001 10 μM plus UA 50 μM, 48 h
Description: Splenic murine T cells were isolated from mice aged 6-20 weeks by negative selection with EasySep mouse T cell isolation kit (Stem cell) according to the manufacturer's instructions. To monitor T cell proliferation, purified T cells were loaded with CellTrace Violet (C34557 ThermoFisher Scientific). T cell activation was initiated using αCD3/CD28 activation beads (11456D; ThermoFisher Scientific) at a ratio of 25 μl dynabeads per 0.5×106 T-cells. Cells were activated with 25-50 μM Urolithin A (Tocris) or DMSO in T cell activation Medium (RPMI (ThermoFisher Scientific) 10% FBS (South America origin), 10 mM Hepes (Sigma), 1×Non-Essential Amino Acid, 1 mM Sodium Pyruvate, 50 µM β-Mercaptoethanol, 100 U/mL penicillin, 100 μg/mL streptomycin and 2 mM Glutamax (ThermoFisher Scientific) for the indicated durations. In selected experiments, cells were stimulated in the presence of inhibitors, namely TCFli (ICG-001; SelleckChem; […]) and PGC-lai (SR-18292, Sigma-Aldrich; […]). For subsequent analysis, activating beads were magnetically removed prior antibody staining. For human T cells, peripheral blood mononuclear cells were purified with a Ficoll-Paque (GE healthcare) gradient. T cells were enriched with EasySep Human T Cell Isolation Kit (StemCell) and activated with dynabead Human T-Activator CD3/CD28 for T Cell Expansion and Activation Kit (11131D; ThermoFisher Scientific), similar to murine T cell stimulation. When the subsequent activation and expansion of CAR T cells was studied, plates were coated with 1 μg/mL anti-human CD3 (αCD3; clone OKT3) and thawed PBMC were cultivated with […] anti-human CD28 (αCD28; 15E8, both Miltenyi Biotec) containing media for three days. (NutriT media (4Cell® Nutri-T media (Sartorius) containing 0.5% penicillin/streptomycin) supplemented with IL-7 (25 U/mL) and IL-15 […] (all Miltenyi Biotec)).
Tumors were minced and digested with Tumor & Tissue Dissociation Reagent (BD Horizon) for 30 min. The remaining organ pieces were filtered through a 70 µm cell strainer. Cells were then washed with PBS 1% BSA and 2 mM EDTA. Immune cells were enriched on a 30%/40%/75% Percoll gradient after a 1700 rpm 17 min centrifugation. Then, tumor immune filtrates or activated T cells were stained with Fixable Viability Dye-eF780 (65-0865-14; eBioscience), αCD45-FITC (30-F11; 11-0451-85; eBioscience), αCD11b-BV650 (M1/70; 56340; BD) α-CD11c-BV785 (HL3; 563735; BD), aLy6G-BV605 (53-6.7; 563005; BD), aLy6C-AF700 (HK1.4; 128024; Biolegend), aF4/80-PE (BM8; 12-4801-82, eBioscience), aPD-L1-PECy7 (MIH5; 25-5982-80, eBioscience); or with Fixable Viability Dye-eF780 (ebioscience), αCD45-BV786 (30-F11; 564225; BD), αCD4-BUV496 (GK1.5; 564667; BD), αCD8-BV605 (100744; Biolegend), aPD1-APC (J43; 17-9985-82; eBioscience), aTIM-3-PECy7 (RMT3-23; 119715; Biolegend), aCTLA4-PE (UC10-4B9; 106305; Biolegend) and aLag3-BV421 (C9B7W; 125221, Biolegend); or with Fixable Viability Dye-eF780 (eBioscience), αCD4-FITC (H129.19; 553650; BD), αCD8-APC (53-6.7; 17-0081-83; eBioscience), αCD44-AF400 (IM7; 103026; Biolegend), αCD62L-BV785 (MEL-14; 104440; Biolegend), αSca-1-PerCP-Cy5.5 (D7; 45-5981-82; eBioscience), αCD95-PE (Jo2; 554258; BD); or with Fixable Viability Dye-eF780 (eBioscience), αCD8-BV650 (53-6.7; 563234; BD), αCD4-BUV496 (GK1.5; 564667; BD), αCD127-APC (A7R34; 17-1271-82; eBioscience), αCD95-FITC (SA367H8;152605; Biolegend), αCD44-AF400 (IM7; 103026; Biolegend), αCD62L-BV785 (MEL-14; 104440; Biolegend), αSca-1-PerCP-Cy5.5 (D7; 45-5981-82; eBioscience) followed by intracellular staining of aTCF1-PE (S33-966; 564217; BD), or PGC-1α (sc-518025; D-5; santa cruz), or aCyclinD1 (MA5-28534, DCS-6; Invitrogen) with transcription factor buffer set kit (BD Biosciences). To study cytokine expression, tumor immune infiltrates were stimulated ex vivo with 20 ng/mL PMA and […] Ionomycin (Sigma) for 3 h in T cell activation medium with Brefeldin A (Biolegend). […]

[4] = 125 and 250 nM, Aβ1-42 72 hours

Structure (SMILES): Cc1cc2c(cc1O)OC(C)(C)c1cc(O)c(C)cc1-2 [117A, 2,6,6,9-tetramethyl-6H-benzo[c]chromene-3,8-diol]
- microglial activation (conclusion) [1]: significantly reduce
- neuroprotection in the inflammatory in vitro model (conclusion) [1]: neuroprotective
- microglial activation (OX-41) [1, 4]: decrease
- neurite network of cortical neurons (MAP-2) [1, 4]: significantly protect
- survival of cortical neurons (MAP-2) [1, 4]: significantly protect
- increase in the percentage of Mitotracker positive cells vs DMSO [2]: 30%
- percentage of Mitotracker positive cells ([2]; DMSO 44%): 57.3%

Structure (SMILES): O=C1[C@H](Cc2ccc(O)cc2)N2C(=O)CCN(C(=O)NCc3ccccc3)[C@H]2CN1Cc1cccc2ccccc12 [ICG001]
- UA-induced TSCM formation in presence of TCF-1 inhibitor [3]: abrogated
